Source: the supplement of paper PMC10307832

Legend:
Assay in all cases: relative viability (nuclei count vs DMSO), 5 days (fraction); higher = more cells survive
[1] = compound: C1CSC2=C(C(=O)N1)SC3=C2C=C(C=C3)O [kb NB 142-70] + CS(=O)(=O)N1CCN(Cc2cc3nc(-c4cccc5[nH]ncc45)nc(N4CCOCC4)c3s2)CC1 [Pictilisib] (partner 1 µM)
How it was run: (§1)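 Dosing by pin tool came one day after lung cancer cell lines were seeded in 1536-well plates, using either one drug or a fixed anchor-drug dose plus five library-drug doses (not always all listed) in √10 steps. After 5 days, nuclei were counted on 4× images. Relative viability is treated-well nuclei count divided by vehicle-well nuclei count, and values are medians of duplicate plates.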

[2] = compound: NCC(=O)Nc1ccc(-n2nc(C(F)(F)F)cc2-c2ccc3c(ccc4ccccc43)c2)cc1 + Cc1nc(NC(=O)N2CCC[C@H]2C(N)=O)sc1-c1ccnc(C(C)(C)C(F)(F)F)c1 [Alpelisib] (partner 2 µM)
How it was run: as §1

[3] = compound: C1CSC2=C(C(=O)N1)SC3=C2C=C(C=C3)O [kb NB 142-70] + N=C(N)NC(=N)NCCc1ccccc1 [Phenformin] (partner 250 µM)
How it was run: as §1

[4] = compound: NCC(=O)Nc1ccc(-n2nc(C(F)(F)F)cc2-c2ccc3c(ccc4ccccc43)c2)cc1 + CCNC(=O)c1noc(-c2cc(C(C)C)c(O)cc2O)c1-c1ccc(CN2CCOCC2)cc1 [Luminespib] (partner 0.01 µM)
How it was run: as §1

[5] = compound: C1CSC2=C(C(=O)N1)SC3=C2C=C(C=C3)O [kb NB 142-70] + CC1(C)CCC(c2ccc(Cl)cc2)=C(CN2CCN(c3ccc(C(=O)NS(=O)(=O)c4ccc(N[C@H](CCN5CCOCC5)CSc5ccccc5)c(S(=O)(=O)C(F)(F)F)c4)cc3)CC2)C1 [Navitoclax] (partner 0.5 µM)
How it was run: as §1

Cell Line | relative viability ([1]; first compound 0.1 µM) | relative viability ([1]; first compound 1 µM) | relative viability ([1]; first compound 3.162 µM) | relative viability ([2]; first compound 0.02 µM) | relative viability ([2]; first compound 0.06325 µM) | relative viability ([2]; first compound 0.2 µM) | relative viability ([2]; first compound 0.6325 µM) | relative viability ([2]; first compound 2 µM) | relative viability ([3]; first compound 0.1 µM) | relative viability ([3]; first compound 1 µM) | relative viability ([3]; first compound 3.162 µM) | relative viability ([4]; first compound 0.02 µM) | relative viability ([4]; first compound 0.06325 µM) | relative viability ([4]; first compound 0.2 µM) | relative viability ([4]; first compound 0.6325 µM) | relative viability ([4]; first compound 2 µM) | relative viability ([5]; first compound 0.1 µM) | relative viability ([5]; first compound 1 µM) | relative viability ([5]; first compound 3.162 µM)
NCI-H2405 | 0.378 | 0.379 | 0.382 | 0.851 | 0.826 | 0.831 | 0.782 | 0.923 | 0.397 | 0.375 | 0.356 | 0.686 | 0.74 | 0.606 | 0.732 | 0.746 | 0.966 | 0.863 | 0.679
NCI-H3122 | 0.578 | 0.649 | 0.551 | 0.852 | 0.847 | 0.801 | 0.823 | 0.746 | 0.412 | 0.396 | 0.347 | 0.0686 | 0.0831 | 0.127 | 0.113 | 0.116 | 0.987 | 1.04 | 0.972
PC-3 [JPC-3] | 0.769 | 0.768 | 0.672 | 1.04 | 1.07 | 1.05 | 1.07 | 1.13 | 0.475 | 0.472 | 0.474 | 0.66 | 0.709 | 0.728 | 0.724 | 0.776 | 0.745 | 0.807 | 0.871
PC-14 | 0.679 | 0.795 | 0.58 | 1.04 | 0.952 | 1.02 | 0.889 | 1.04 | 0.658 | 0.56 | 0.619 | 0.146 | 0.154 | 0.19 | 0.218 | 0.182 | 0.977 | 1.06 | 0.96
RERF-LC-KJ | 0.504 | 0.519 | 0.374 | 0.848 | 0.899 | 0.734 | 0.883 | 0.937 | 0.409 | 0.463 | 0.445 | 1.32 | 1.29 | 1.27 | 1.19 | 1.1 | 1.05 | 0.762 | 0.468
SK-LU-1 | 0.608 | 0.484 | 0.324 | 0.913 | 1.08 | 1.3 | 0.891 | 0.977 | 0.546 | 0.451 | 0.265 | 0.208 | 0.182 | 0.193 | 0.206 | 0.18 | 0.747 | 0.642 | 0.178
SK-MES-1 | 0.333 | 0.325 | 0.235 | 1.02 | 0.981 | 0.925 | 0.816 | 0.919 | 0.754 | 0.658 | 0.407 | 0.828 | 0.904 | 0.897 | 0.842 | 0.802 | 1.21 | 1.27 | 0.658
SW 1573 | 0.49 | 0.337 | 0.26 | 0.782 | 0.741 | 0.807 | 0.75 | 0.765 | 0.378 | 0.264 | 0.175 | 0.252 | 0.151 | 0.151 | 0.677 | 0.209 | 0.954 | 0.878 | 0.561
